Counter-ions that a name gives are not always drawn.
Key:
Type in all cases: cell-based
HTT mRNA [1] = assay: Splicing RT-qPCR assay (THP), Table 2A; details: Table 2A (THP); for AC50: AJ mRNA increase, read-out: HTT AJ (increase in alternative junction mRNA, AC50); for IC50: CJ mRNA decrease, read-out: HTT CJ (decrease in canonical junction mRNA, IC50)
HTT mRNA [2] = assay: Gene panel canonical junction qPCR assay, decrease in CJ mRNA, Table 3; details: decrease in canonical junction (CJ) mRNA, gene panel qPCR, Table 3
Outline: (§1)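 IC50 denotes the concentration giving 50% decrease in canonical-junction mRNA, fitted by 4-parameter logistic to percentage response derived from ΔΔCt versus housekeeping gene and DMSO control. Cells (A673 or K562) exposed 24 h to 11-point 3-fold serial dilutions from 10 uM top, DMSO ≤0.25%; junction-spanning primer/probe qPCR.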

MYB mRNA [3] = assay: as above; details: decrease in canonical junction (CJ) mRNA, gene panel qPCR, Table 3
Outline: as §1

MYB mRNA [4] = assay: Splicing RT-qPCR assay (THP), Table 2A; details: Table 2A (THP); for AC50: AJ mRNA increase, read-out: MYB AJ (increase in alternative junction mRNA, AC50); for IC50: CJ mRNA decrease, read-out: MYB CJ (decrease in canonical junction mRNA, IC50)
[5] = system: SH-SY5Y (human neuroblastoma) cells; assay: Cell viability, Cell Titer Glo 2.0 assay; details: read-out: Viability SHSY5Y.3 GI50
Outline: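 Viability was read by CellTiter-Glo 2.0 luminescence after a 72-hour compound exposure at 37° C. under 5% CO2. Cells were in IMDM plus 10% FBS containing 0.1% DMSO, and medium-only wells gave the blank.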

| SMILES | AC50 (HTT mRNA [1]) | IC50 (HTT mRNA [1]) | IC50 (HTT mRNA [2]) | IC50 (MYB mRNA [3]) | AC50 (MYB mRNA [4]) | IC50 (MYB mRNA [4]) | GI50 [5] |
| --- | --- | --- | --- | --- | --- | --- | --- |
| CCNC1CCN(c2ccc(C(=O)Nc3cc(CC(=O)NC)c4nc(C)cn4c3)c3nn(C)cc23)CC1 [Compound 341, 4-(4-(ethylamino)piperidin-1-yl)-2-methyl-N-(2-methyl-8-(2-(methylamino)-2-oxoethyl)imidazo[1,2-a]-pyridin-6-yl)-2H-indazole-7-carboxamide bis(2,2,2-trifluoroacetate)] | > 10000 nM | 1000 to 10000 nM | 1000 to 10000 nM | > 10000 nM | 1000 to 10000 nM | > 10000 nM | > 10000 nM |
| CNC1CCN(c2cc(F)c(C(=O)Nc3cn4cc(C)nc(C)c4n3)c3nn(C)cc23)CC1 [Compound 342, N-(6,8-dimethylimidazo[1,2-a]pyrazin-2-yl)-6-fluoro-2-methyl-4-[4-(methylamino)-1-piperidyl]-indazole-7-carbox-amide] | 1000 to 10000 nM | 1000 to 10000 nM | 1000 to 10000 nM | < 100 nM | < 100 nM | < 100 nM | 1000 to 10000 nM |
| CCNC1CCN(c2cc(F)c(C(=O)Nc3cn4cc(C)nc4c(F)c3OCC)c3nn(C)cc23)CC1 [Compound 343, N-(7-ethoxy-8-fluoro-2-methylimidazo [1,2-a]pyridin-6-yl)-4-(4-(ethylamino)piperidin-1-yl)-6-fluoro-2-methyl-2H-indazole-7-carboxamide hydrochloride] | < 100 nM | < 100 nM | < 100 nM | < 100 nM | < 100 nM | < 100 nM | < 100 nM |
| CCNC1CCN(c2cc(F)c(C(=O)Nc3cc4c(C)nc(C)cn4c3)c3nn(C)cc23)CC1 [Compound 344, N-(1,3-dimethylpyrrolo[1,2-a]-pyrazin-7-yl)-4-[4-(ethylamino)-1-piperidyl]-6-fluoro-2-methyl-indazole-7-carboxamide] | > 10000 nM | > 10000 nM | > 10000 nM | 100 to 1000 nM | 100 to 1000 nM | 100 to 1000 nM | 1000 to 10000 nM |
| CCNC1CCN(c2ccc(C(=O)Nc3cc4c(C)nc(C)cn4c3)c3nn(C)cc23)CC1 [Compound 345, N-(1,3-dimethylpyrrolo[1,2-a]pyrazin-7-yl)-4-[4-(ethylamino)-1-piperidyl]-2-methyl-indazole-7-carboxamide] | > 10000 nM | > 10000 nM | > 10000 nM | 1000 to 10000 nM | > 10000 nM | 1000 to 10000 nM | 1000 to 10000 nM |
| CCNC1CCN(c2cc(F)c(C(=O)Nc3cn4cc(C5CC5)nc(C)c4n3)c3nn(C)cc23)CC1 [Compound 346, N-(6-cyclopropyl-8-methyl-imidazo[1,2-a]pyrazin-2-yl)-4-(4-(ethylamino)-piperidin-1-yl)-6-fluoro-2-methyl-2H-indazole-7-carboxamide bis(2,2,2-trifluoroacetate)] | > 10000 nM | > 10000 nM | > 10000 nM | > 10000 nM | > 10000 nM | > 10000 nM | 1000 to 10000 nM |
| Cc1cn2cc(NC(=O)c3c(F)cc(N4CCC(N)CC4)c4cn(C)nc34)nc2c(C)n1 [Compound 347, 4-(4-aminopiperidin-1-yl)-N-(6,8-dimethylimidazo[1,2-a]pyrazin-2-yl)-6-fluoro-2-methyl-2H-indazole-7-carboxamide 2,2,2-trifluoroacetate] | 1000 to 10000 nM | 1000 to 10000 nM | 1000 to 10000 nM | < 100 nM | < 100 nM | < 100 nM | 1000 to 10000 nM |
| CCNC1CCN(c2cc(Cl)c(C(=O)Nc3cn4cc(C)nc(C)c4n3)c3nn(C)cc23)CC1 [Compound 348, 6-chloro-N-(6,8-dimethylimidazo-[1,2-a]pyrazin-2-yl)-4-[4-(ethylamino)-1-piperidyl]-2-methyl-indazole-7-carboxamide] | > 10000 nM | > 10000 nM | > 10000 nM | 1000 to 10000 nM | 100 to 1000 nM | 1000 to 10000 nM | 1000 to 10000 nM |
| Cc1cn2cc(NC(=O)c3c(F)cc(N4CCC(NC5CCC5)CC4)c4cn(C)nc34)nc2c(C)n1 [Compound 349, 4-[4-(cyclobutylamino)-1-piperid-yl]-N-(6,8-dimethyl-imidazo [1,2-a]-pyrazin-2-yl)-6-fluoro-2-methyl-indazole-7-carbox-amide] | > 10000 nM | > 10000 nM | > 10000 nM | < 100 nM | < 100 nM | < 100 nM | 100 to 1000 nM |
| CCNC1CCN(c2ccc(C(=O)Nc3cn4cc(CF)nc(C)c4n3)c3nn(C)cc23)CC1 [Compound 350, 4-[4-(ethylamino)-1-piperidyl]-N-[6-(fluoromethyl)-8-methyl-imidazo[1,2-a]pyrazin-2-yl]-2-methyl-indazole-7-carboxamide 2,2,2-trifluoroacetic acid] | > 10000 nM | > 10000 nM | > 10000 nM | 100 to 1000 nM | 100 to 1000 nM | 100 to 1000 nM | 1000 to 10000 nM |
| CCNC1CCN(c2cc(F)c(C(=O)Nc3cn4cc(C)nc(OC)c4n3)c3nn(C)cc23)CC1 [Compound 351, 4-[4-(ethyl-amino)-1-piperidyl]-6-fluoro-N-(8-methoxy-6-methyl-imidazo[1,2-a]-pyrazin-2-yl)-2-methyl-indazole-7-carboxamide] | > 10000 nM | > 10000 nM | > 10000 nM | 1000 to 10000 nM | > 10000 nM | 1000 to 10000 nM | 1000 to 10000 nM |
| CCNC1CCN(c2ccc(C(=O)Nc3cc(Oc4ccc(C#N)cc4)c4nc(C)cn4c3)c3nn(C)cc23)CC1 [Compound 352, N-[8-(4-cyanophenoxy)-2-methyl-imidazo[1,2-a]pyridin-6-yl]-4-[4-(ethylamino)-1-piperidyl]-2-methylindazole-7-carboxamide] | > 10000 nM | 1000 to 10000 nM | 1000 to 10000 nM | < 100 nM | < 100 nM | < 100 nM | 100 to 1000 nM |
| CCNC1CCN(c2ccc(C(=O)Nc3cc(Oc4cccnc4)c4nc(C)cn4c3)c3nn(C)cc23)CC1 [Compound 353, 4-[4-(ethylamino)-1-piperidyl]-2-methyl-N-[2-methyl-8-(3-pyridyloxy)-imidazo[1,2-a]-pyridin-6-yl]-indazole-7-carboxamide] | 1000 to 10000 nM | 1000 to 10000 nM | 1000 to 10000 nM | 100 to 1000 nM | 100 to 1000 nM | 100 to 1000 nM | > 10000 nM |
| Cc1cn2cc(NC(=O)c3ccc(N4CCC(NC5(C)CC5)CC4)c4cn(C)nc34)cc(F)c2n1 [Compound 355, N-(8-fluoro-2-methyl-imidazo[1,2-a]-pyridin-6-yl)-2-methyl-4-[4-[(1-methyl-cyclopropyl)amino]-1-piperidyl]indazole-7-carboxamide] | 100 to 1000 nM | 100 to 1000 nM | 100 to 1000 nM | < 100 nM | < 100 nM | < 100 nM | 100 to 1000 nM |
| Cc1cn2cc(NC(=O)c3c(F)cc(N4CCC(N(C)C)CC4)c4cn(C)nc34)nc2c(C)n1 [Compound 356, 4-[4-(dimethylamino)-1-piperidyl]-N-(6,8-dimethylimidazo[1,2-a]pyrazin-2-yl)-6-fluoro-2-methyl-indazole-7-carboxamide] | 1000 to 10000 nM | 1000 to 10000 nM | 1000 to 10000 nM | 100 to 1000 nM | < 100 nM | 100 to 1000 nM | 1000 to 10000 nM |
| CCNC1CCN(c2cc(F)c(C(=O)Nc3cn4cc(C)nc4c(Cl)c3OC)c3nn(C)cc23)CC1 [Compound 357, N-(8-chloro-7-methoxy-2-methylimidazo[1,2-a]pyridin-6-yl)-4-[4-(ethylamino)-1-piperidyl]-6-fluoro-2-methyl-indazole-7-carboxamide] | 100 to 1000 nM | 100 to 1000 nM | 100 to 1000 nM | < 100 nM | < 100 nM | < 100 nM | 100 to 1000 nM |
| CCNC1CCN(c2ccc(C(=O)Nc3cn4cc(C)nc(CC)c4n3)c3nn(C)cc23)CC1 [Compound 358, 4-[4-(ethylamino)-1-piperidy1]-N-(8-ethyl-6-methyl-imidazo[1,2-a]-pyrazin-2-yl)-2-methyl-indazole-7-carboxamide] | 1000 to 10000 nM | 1000 to 10000 nM | 1000 to 10000 nM | 1000 to 10000 nM | 100 to 1000 nM | 1000 to 10000 nM | 1000 to 10000 nM |
| CCNC1CCN(c2cc(F)c(C(=O)Nc3cn4cc(C#N)nc(C)c4n3)c3nn(C)cc23)CC1 [Compound 359, N-(6-cyano-8-methyl-imidazo-[1,2-a]pyrazin-2-yl)-4-[4-(ethylamino)-1-piperidyl]-6-fluoro-2-methyl-indazole-7-carboxamide] | 100 to 1000 nM | 100 to 1000 nM | 100 to 1000 nM | 100 to 1000 nM | 100 to 1000 nM | 100 to 1000 nM | 100 to 1000 nM |

Source: patent US20260285853A1, “COMPOUNDS AND METHODS FOR MODULATING SPLICING” (REMIX THERAPEUTICS INC., priority 2023, published 2026)
